This is an account of results in US9321756B2, “Azole compounds as PIM inhibitors” (priority 2011, dated 2016).

Experiment [1] deals with full length recombinant Pim-3 (Homo sapiens (Human), UniProt Q86V86). The experiment in a line: Pim enzyme assay (HTRF, phosphorylation of biotinylated-BAD (S112) peptide), Pim-3. The class given is biochemical. To be noted: read-out: Pim3 IC50. An outline of the steps: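 IC50 values were fitted with a 4-parameter logistic model to percent-of-control HTRF signal (Eu anti-phospho-BAD S112 antibody/streptavidin-APC). Reactions used full-length Pim-3 and biotin-BAD (S112) peptide, ran 1 h 30 min at RT (22 °C) in Hepes pH 7.0 buffer with BSA and DTT, and were stopped by 3 mM EDTA.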

Experiment [2] has as its target full length recombinant Pim-2 (Homo sapiens (Human), UniProt Q9P1W9). The experiment in a line: Pim enzyme assay (HTRF, phosphorylation of biotinylated-BAD (S112) peptide), Pim-2. It is filed as biochemical. To be noted: read-out: Pim2_IC50.
Experiment [3] has as its target full length recombinant Pim-1 (Homo sapiens (Human), UniProt P11309). The experiment in a line: Pim enzyme assay (HTRF, phosphorylation of biotinylated-BAD (S112) peptide), Pim-1. The class given is biochemical. To be noted: read-out: Pim_1_IC50.
For experiment [4], the system named is Pim-2 stably transfected U2OS human osteogenic sarcoma line. Nature of the experiment: Pim cell assay U2OS (phospho-BAD normalized against total BAD), Pim-2 transfected. The class given is cell-based. To be noted: Homo sapiens, read-out: U2OS Pim2_Cell_IC50.
Experiment [5] has as its system Pim-1 stably transfected U2OS human osteogenic sarcoma line. Nature of the experiment: Pim cell assay U2OS (phospho-BAD normalized against total BAD), Pim-1 transfected. To be noted: Homo sapiens, U2OS. It is filed as cell-based.
Setting [6] is: read-out: U2OS Pim1_Cell_IC50, U2OS cells, Pim-1 transfected.

Molecules are shown by their SMILES. pIC50: −log10 of the molar value. Where two headings read alike, the source gives them in different places.

Sequence of full length recombinant Pim-1 (P11309 whole entry): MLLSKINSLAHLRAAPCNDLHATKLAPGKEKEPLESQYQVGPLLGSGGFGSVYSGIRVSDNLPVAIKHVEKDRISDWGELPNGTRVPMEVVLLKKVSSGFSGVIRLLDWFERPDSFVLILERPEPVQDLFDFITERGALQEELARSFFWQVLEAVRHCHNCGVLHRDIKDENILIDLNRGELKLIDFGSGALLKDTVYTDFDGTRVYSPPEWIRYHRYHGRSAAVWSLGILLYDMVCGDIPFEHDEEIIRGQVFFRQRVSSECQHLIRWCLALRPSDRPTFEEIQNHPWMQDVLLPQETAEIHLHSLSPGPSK
Sequence of full length recombinant Pim-2 (Q9P1W9 whole entry): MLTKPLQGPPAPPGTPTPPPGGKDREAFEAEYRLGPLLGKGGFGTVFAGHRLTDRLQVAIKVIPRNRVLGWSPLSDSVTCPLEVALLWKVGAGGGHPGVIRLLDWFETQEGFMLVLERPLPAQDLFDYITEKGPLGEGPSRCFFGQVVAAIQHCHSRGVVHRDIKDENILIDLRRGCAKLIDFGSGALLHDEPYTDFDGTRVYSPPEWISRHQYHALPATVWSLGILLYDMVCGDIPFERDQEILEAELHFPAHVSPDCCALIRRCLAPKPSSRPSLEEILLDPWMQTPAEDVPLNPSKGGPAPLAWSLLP

Regarding `CNc1nnc(-c2ccc3[nH]cc(-c4cccc(-n5cnc(C)c5)n4)c3c2)s1` [Example 228, N-methyl-5-(3-(6-(4-methyl-1H-imidazol-1-yl)-2-pyridinyl)-1H-indol-5-yl)-1,3,4-thiadiazol-2-amine], the pIC50 is 8.82 in experiment [1] (Pim-3 enzyme assay); 8.08 in experiment [2] (Pim-2 enzyme assay); 7.88 in experiment [3] (Pim-1 enzyme assay); below 4.50 in experiment [4] (U2OS cells, Pim-2 transfected); below 4.50 in experiment [5] (read-out: U2OS Pim1_Cell_IC50).

As to `Nc1nnc(-c2ccc3[nH]cc(-c4cncc(N5CCCCC5)n4)c3c2)o1` [Example 89, 5-(3-(6-(1-piperidinyl)-2-pyrazinyl)-1H-indol-5-yl)-1,3,4-oxadiazol-2-amine], the pIC50 was 8.74 in experiment [1] (Pim-3 enzyme assay); 8.32 in experiment [2] (Pim-2 enzyme assay); 8.68 in experiment [3] (Pim-1 enzyme assay); 6.16 in experiment [4] (U2OS cells, Pim-2 transfected); 7.22 in experiment [5] (setting [6]).

As for `Nc1nnc(-c2ccc3[nH]cc(-c4cccc(-c5ccc(Cl)cc5)n4)c3c2)s1` [Example 31, 5-(3-(6-(4-chlorophenyl)pyridin-2-yl)-1H-indol-5-yl)-1,3,4-thiadiazol-2-amine], the pIC50 in experiment [1] was 7.86; in experiment [2], 7.12; in experiment [3] it was 7.43; in experiment [4] (U2OS cells, Pim-2 transfected) it was 4.55; in experiment [5] (setting [6]), 5.96.

As to `c1cc(-c2c[nH]c3ccc(-c4nncs4)cc23)nc(N2CCOCC2)c1` [Example 28, 4-(6-(5-(1,3,4-thiadiazol-2-yl)-1H-indol-3-yl)pyridin-2-yl)morpholine], the pIC50 in experiment [1] (Pim-3 enzyme assay) was 7.57; in experiment [2] (Pim-2 enzyme assay), 6.81; in experiment [3] (Pim-1 enzyme assay), 7.39; in experiment [4] (U2OS cells, Pim-2 transfected), below 4.50; in experiment [5] (read-out: U2OS Pim1_Cell_IC50), 5.97.

In the case of `Cc1cn(-c2cccc(-c3c[nH]c4ccc(-c5nnc(N)s5)cc34)n2)cn1` [Example 155, 5-(3-(6-(4-methyl-1H-imidazol-1-yl)-2-pyridinyl)-1H-indol-5-yl)-1,3-4-thiadiazol-2-amine], the pIC50 in experiment [1] (Pim-3 enzyme assay) was 9.37; in experiment [2] (Pim-2 enzyme assay) it was 8.65; in experiment [3] (Pim-1 enzyme assay) it was 8.35; in experiment [4] (U2OS cells, Pim-2 transfected), below 4.50; in experiment [5] (setting [6]), 6.59.

For the molecule `CCOc1cccc(-c2c[nH]c3ccc(-c4nnc(NC)s4)cc23)n1` [Example 230, 5-(3-(6-ethoxy-2-pyridinyl)-1H-indol-5-yl)-N-methyl-1,3,4-thiadiazol-2-amine], the pIC50 is 8.15 in experiment [1] (Pim-3 enzyme assay); 7.20 in experiment [2] (Pim-2 enzyme assay); 7.51 in experiment [3] (Pim-1 enzyme assay); below 4.50 in experiment [4] (U2OS cells, Pim-2 transfected); 6.04 in experiment [5] (read-out: U2OS Pim1_Cell_IC50).

On to `c1cc2[nH]cc(-c3cncc(C4CC4)n3)c2cc1-c1nnc(NC2CC2)o1` [Example 49, N-cyclopropyl-5-(3-(6-cyclopropylpyrazin-2-yl)-1H-indol-5-yl)-1,3,4-oxadiazol-2-amine], for which the pIC50 in experiment [1] (Pim-3 enzyme assay) is 8.74; in experiment [2] (Pim-2 enzyme assay), 8.12; in experiment [3] (Pim-1 enzyme assay), 8.46; in experiment [4] (U2OS cells, Pim-2 transfected), 5.57; in experiment [5] (read-out: U2OS Pim1_Cell_IC50), 7.08.

Consider `CNc1nnc(-c2ccc3[nH]cc(-c4nccc(N5CCCCC5)n4)c3c2)s1` [Example 135, N-methyl-5-(3-(4-(1-piperidinyl)-2-pyrimidinyl)-1H-indol-5-yl)-1,3,4-thiadiazol-2-amine], for which the pIC50 in experiment [1] (Pim-3 enzyme assay) was 7.49; in experiment [2] (Pim-2 enzyme assay), 7.22; in experiment [3] (Pim-1 enzyme assay) it was 7.07; in experiment [4] (U2OS cells, Pim-2 transfected), below 4.50; in experiment [5] (setting [6]), 5.07.

Take `Nc1nnc(-c2ccc3[nH]cc(-c4ccccc4F)c3c2)s1` [Example 136, 5-(3-(2-fluorophenyl)-1H-indol-5-yl)-1,3,4-thiadiazol-2-amine]: the pIC50 in experiment [1] (Pim-3 enzyme assay) is 7.51; in experiment [2] (Pim-2 enzyme assay), 7.22; in experiment [3] (Pim-1 enzyme assay), 7.17; in experiment [4] (U2OS cells, Pim-2 transfected) it was below 4.50; in experiment [5] (setting [6]), 5.47.

For the molecule `CN1CCN(c2cccc(-c3c[nH]c4ccc(-c5nnc(N)s5)cc34)n2)CC1` [Example 13, 5-(3-(6-(4-methylpiperazin-1-yl)pyridin-2-yl)-1H-indol-5-yl)-1,3,4-thiadiazol-2-amine], the pIC50 in experiment [1] is 9.20; in experiment [2], 7.96; in experiment [3], 8.69; in experiment [4] (U2OS), 5.52; in experiment [5] (setting [6]), 6.70.

With `Nc1nnc(-c2ccc3[nH]cc(-c4cncc(OC5CCCC5)n4)c3c2)s1` [Example 160, 5-(3-(6-(cyclopentyloxy)-2-pyrazinyl)-1H-indol-5-yl)-1,3,4-thiadiazol-2-amine], the pIC50 in experiment [1] (Pim-3 enzyme assay) was 7.97; in experiment [2] (Pim-2 enzyme assay) it was 7.61; in experiment [3] (Pim-1 enzyme assay), 7.98; in experiment [4] (U2OS cells, Pim-2 transfected), 5.18; in experiment [5] (setting [6]), 6.75.

As for `Nc1nnc(-c2ccc3[nH]cc(-c4ccnc(N5CCOCC5)n4)c3c2)s1` [Example 133, 5-(3-(2-(4-morpholinyl)-4-pyrimidinyl)-1H-indol-5-yl)-1,3,4-thiadiazol-2-amine], the pIC50 is 8.40 in experiment [1] (Pim-3 enzyme assay); 7.71 in experiment [2] (Pim-2 enzyme assay); 7.87 in experiment [3] (Pim-1 enzyme assay); 5.09 in experiment [4] (U2OS cells, Pim-2 transfected); 6.27 in experiment [5] (setting [6]).

On to `Nc1nnc(-c2ccc3[nH]cc(-c4csc(-n5ccccc5=O)n4)c3c2)s1` [Example 177, 1-(4-(5-(5-amino-1,3,4-thiadiazol-2-yl)-1H-indol-3-yl)-1,3-thiazol-2-yl)-2(1H)-pyridinone], for which the pIC50 in experiment [1] (Pim-3 enzyme assay) is 7.52; in experiment [2] (Pim-2 enzyme assay) it was 7.04; in experiment [3] (Pim-1 enzyme assay) it was 7.34; in experiment [4] (U2OS cells, Pim-2 transfected), below 4.50; in experiment [5] (read-out: U2OS Pim1_Cell_IC50) it was 6.27.

In the case of `CC(C)Oc1cccc(-c2c[nH]c3ccc(-c4nnc(N)o4)cc23)n1` [Example 87, 5-(3-(6-(1-methylethoxy)-2-pyridinyl)-1H-indol-5-yl)-1,3,4-oxadiazol-2-amine], the pIC50 was 8.95 in experiment [1] (Pim-3 enzyme assay); 8.26 in experiment [2] (Pim-2 enzyme assay); 8.38 in experiment [3] (Pim-1 enzyme assay); 6.08 in experiment [4] (U2OS cells, Pim-2 transfected); 7.35 in experiment [5] (read-out: U2OS Pim1_Cell_IC50).

Consider `Nc1nnc(-c2ccc3[nH]cc(-c4cncc(-c5ccccc5)n4)c3c2)o1` [Example 115, 5-(3-(6-phenyl-2-pyrazinyl)-1H-indol-5-yl)-1,3,4-oxadiazol-2-amine], for which the pIC50 in experiment [1] (Pim-3 enzyme assay) is 8.27; in experiment [2] (Pim-2 enzyme assay), 7.85; in experiment [3] (Pim-1 enzyme assay), 8.03; in experiment [4] (U2OS cells, Pim-2 transfected), below 4.50; in experiment [5] (read-out: U2OS Pim1_Cell_IC50), 6.98.

As for `CC(C)Oc1ccc(F)c(-c2c[nH]c3ccc(-c4nnc(N)o4)cc23)c1` [Example 83, 5-(3-(2-fluoro-5-(1-methylethoxy)phenyl)-1H-indol-5-yl)-1,3,4-oxadiazol-2-amine], the pIC50 in experiment [1] (Pim-3 enzyme assay) was 7.44; in experiment [2] (Pim-2 enzyme assay) it was 6.71; in experiment [3] (Pim-1 enzyme assay) it was 7.23; in experiment [4] (U2OS cells, Pim-2 transfected), 4.73; in experiment [5] (setting [6]), 6.14.

Take `Nc1nnc(-c2ccc3[nH]cc(-c4nccc(N5CCC[C@@H](O)C5)n4)c3c2)o1` (stereo in doubt) [Example 104, 1-(2-(5-(5-amino-1,3,4-oxadiazol-2-yl)-1H-indol-3-yl)-4-pyrimidinyl)-3-piperidinol]: the pIC50 in experiment [1] (Pim-3 enzyme assay) was 8.29; in experiment [2] (Pim-2 enzyme assay) it was 8.11; in experiment [3] (Pim-1 enzyme assay), 7.94; in experiment [4] (U2OS cells, Pim-2 transfected), 4.82; in experiment [5] (read-out: U2OS Pim1_Cell_IC50) it was 5.67.

For `CC(C)Oc1ccc(F)c(-c2c[nH]c3ccc(-c4nnc(N)o4)nc23)c1` [Example 125, 5-(3-(2-fluoro-5-(1-methylethoxy)phenyl)-1H-pyrrolo[3,2-b]pyridin-5-yl)-1,3,4-oxadiazol-2-amine], the pIC50 in experiment [1] (Pim-3 enzyme assay) was 8.11; in experiment [2] (Pim-2 enzyme assay), 7.24; in experiment [3] (Pim-1 enzyme assay) it was 7.64; in experiment [4] (U2OS cells, Pim-2 transfected), 5.35; in experiment [5] (setting [6]), 6.96.

For `CN1CCN(c2cccc(-c3c[nH]c4ccc(-c5nnc(N)o5)cc34)n2)CC1` [Example 75, 5-(3-(6-(4-methyl-1-piperazinyl)-2-pyridinyl)-1H-indol-5-yl)-1,3,4-oxadiazol-2-amine], the pIC50 in experiment [1] (Pim-3 enzyme assay) was 8.60; in experiment [2] (Pim-2 enzyme assay), 8.16; in experiment [3] (Pim-1 enzyme assay), 8.42; in experiment [4] (U2OS cells, Pim-2 transfected), 5.63; in experiment [5] (read-out: U2OS Pim1_Cell_IC50), 6.76.

For `c1cc2[nH]cc(-c3cncc(C4CC4)n3)c2cc1-c1nnc(N2CCNCC2)o1` [Example 246, 3-(6-cyclopropyl-2-pyrazinyl)-5-(5-(1-piperazinyl)-1,3,4-oxadiazol-2-yl)-1H-indole], the pIC50 is 8.15 in experiment [1] (Pim-3 enzyme assay); 7.67 in experiment [2] (Pim-2 enzyme assay); 8.38 in experiment [3] (Pim-1 enzyme assay); below 4.50 in experiment [4] (U2OS cells, Pim-2 transfected); 6.35 in experiment [5] (read-out: U2OS Pim1_Cell_IC50).

Take `CNc1nnc(-c2ccc3[nH]cc(-c4cccc(N5CCOCC5)n4)c3c2)s1` [Example 214, N-methyl-5-(3-(6-(4-morpholinyl)-2-pyridinyl)-1H-indol-5-yl)-1,3,4-thiadiazol-2-amine]: the pIC50 in experiment [1] (Pim-3 enzyme assay) was 8.00; in experiment [2] (Pim-2 enzyme assay), 7.04; in experiment [3] (Pim-1 enzyme assay), 7.59; in experiment [4] (U2OS cells, Pim-2 transfected) it was 4.82; in experiment [5] (setting [6]) it was 6.23.

On to `Nc1nnc(-c2ccc3[nH]cc(-c4cccc(-n5cccn5)n4)c3c2)s1` [Example 180, 5-(3-(6-(1H-pyrazol-1-yl)-2-pyridinyl)-1H-indol-5-yl)-1,3,4-thiadiazol-2-amine], for which the pIC50 in experiment [1] (Pim-3 enzyme assay) is 7.57; in experiment [2] (Pim-2 enzyme assay), 7.31; in experiment [3] (Pim-1 enzyme assay), 7.09; in experiment [4] (U2OS cells, Pim-2 transfected) it was 5.26; in experiment [5] (read-out: U2OS Pim1_Cell_IC50), 6.03.
